What all share (type): cell-based
One assay has as its system HCC1954. The experiment in a line: Tumor cell inhibition experiment (CCK-8), HCC1954. To be noted: HCC1954, HER2 3+, 3 days, read-out: IC50 values (nM) of anti-HER2 antibody-drug conjugates to HER2-expressing tumor cells. Here is the method:
(§1) This example examined the inhibitory activity of the antibody-drug conjugates of the present invention on HER2-positive cells. The tumor cell lines in this example were all purchased from ATCC, USA.
(§2) The experimental steps are as follows:
(§3) The cells were digested, collected by centrifugation, counted, and the cell liquid was diluted to 0.4-2.0×10^5 cells/ml, and 100 μl of said cell suspension was added to each well of a 96-well plate. The cells were cultured overnight in a 37° C. cell culture incubator, and ADC drugs with corresponding concentration was added the next day. The initial concentration of the drug was 1-15 μg/ml, and was diluted in 3-fold equal-gradient with a total of 9 concentration gradients. Finally, a set of zero-concentration cell were set as controls. After addition of drug, the cells were cultured for 3 days, and the drug-containing medium was sucked. 100 μl of 10% CCK-8 solution was added to each well, and incubated at 37° C. for 1-2 h, and then absorbance intensity of each well was detected at 490 nm with a microplate reader. The data was imported into a mapping software, the curve was fitted, and IC50 values were calculated.

For a further assay, the system named is NCI-N87. The experiment in a line: Tumor cell inhibition experiment (CCK-8), NCI-N87. To be noted: NCI-N87, HER2 3+, 3 days, read-out: IC50 values (nM) of anti-HER2 antibody-drug conjugates to HER2-expressing tumor cells. As to the method: as §1, §2, §3
For another assay, the system named is SKBR-3. The experiment in a line: Tumor cell inhibition experiment (CCK-8), SKBR-3. The following applies: SKBR-3, HER2 3+, 3 days, read-out: IC50 values (nM) of anti-HER2 antibody-drug conjugates to HER2-expressing tumor cells. Here is the method:
as §1, §2, §3

A further assay has as its system OE-19. The assay can be described thus: Tumor cell inhibition experiment (CCK-8), OE-19. The following applies: OE-19, HER2 3+, 3 days, read-out: IC50 values (nM) of anti-HER2 antibody-drug conjugates to HER2-expressing tumor cells. Here is the method: as §1, §2, §3
Another assay deals with MDA453. The assay can be described thus: Tumor cell inhibition experiment (CCK-8), MDA453. The following applies: MDA453, HER2 2+, 3 days, read-out: IC50 values (nM) of anti-HER2 antibody-drug conjugates to HER2-expressing tumor cells. Here is the method: as §1, §2, §3
The subject of the next assay is BT474. The assay can be described thus: Tumor cell inhibition experiment (CCK-8), BT474. To be noted: BT474, HER2 3+, 3 days, read-out: IC50 values (nM) of anti-HER2 antibody-drug conjugates to HER2-expressing tumor cells. As to the method: as §1, §2, §3

Among the data in patent US12318455B2, “Anti-HER2 antibody-drug conjugate and application thereof” (HANGZHOU ADCORIS BIOPHARMA CO., LTD., priority 2016, dated 2025) are IC50 values, retold here.

As usually defined, the IC50 is the point on the concentration scale where inhibition reaches its midpoint.

Regarding T-DM1, the IC50 came out at 0.159 nM in the assay with HCC1954; 0.548 nM in the assay on NCI-N87; 0.114 nM in the assay on SKBR-3; 0.099 nM in the assay with OE-19; 0.259 nM in the assay with MDA453; 0.622 nM with BT474.
